Assays:
Human δ-opioid (DOP) = molecular target: T1, Human δ-opioid (DOP) (Homo sapiens, UniProt P41143); assay: Radioligand binding, human δ-opioid (DOP) membranes, FlashPlate, [3H]-Bremazocine; conditions: compound at 10 μM, [3H]-Bremazocine
T1 construct: purchased Perkin Elmer Biosignal
Procedure, shortened: (§1)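 Cloned human receptor membranes were coated onto FlashPlate wells and incubated with radioligand and compound (added from a 0.5 mM DMSO daughter plate) for 1 hour at room temperature in the dark. Scintillation counting gave percent inhibition, with DMSO defining total and reference ligand defining non-specific binding.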

Human κ-Opioid (KOP) = molecular target: T2, Human κ-Opioid (KOP) (Homo sapiens, UniProt P41145); assay: Radioligand binding, human κ-opioid (KOP) membranes, filtration, [3H]-Diprenorphine; conditions: compound at 10 μM, [3H]-Diprenorphine
T2 construct: purchased Perkin Elmer Biosignal
Procedure, shortened: (§2)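 Percent inhibition of radioligand binding measured on recombinant human membranes: NK1 with [125I]-Substance P, KOP with [3H]-Diprenorphine. Incubation 1 h at room temperature, then harvest onto 0.3% PEI-soaked filters, cold Tris-HCl pH 7.4 washes and scintillation counting; non-specific binding from reference ligand wells.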

Human Melanocortin (MC3) = molecular target: T3, Human Melanocortin (MC3) (Homo sapiens, UniProt P41968); assay: Radioligand binding, human melanocortin MC3 membranes, FlashPlate, [125I]-NDP-αMSH; conditions: compound at 10 μM, [125I]-NDP-αMSH
T3 construct: purchased Perkin Elmer Biosignal
Procedure, shortened: as §1

Human Melanocortin (MC4) = molecular target: T4, Human Melanocortin (MC4) (Homo sapiens, UniProt P32245); assay: Radioligand binding, human melanocortin MC4 membranes, FlashPlate, [125I]-NDP-αMSH; conditions: compound at 10 μM, [125I]-NDP-αMSH
T4 construct: purchased Perkin Elmer Biosignal
Procedure, shortened: as §1

Human melanocortin (MC5) = molecular target: T5, Human melanocortin (MC5) (Homo sapiens, UniProt P33032); assay: Radioligand binding, human melanocortin MC5 membranes, FlashPlate, [125I]-NDP-αMSH; conditions: compound at 10 μM, [125I]-NDP-αMSH
T5 construct: purchased Perkin Elmer Biosignal
Procedure, shortened: as §1

[1] = molecular target: T6, Human melanin-concentrating hormone (MCH1) (Homo sapiens, UniProt Q99705); assay: Radioligand binding, human melanin-concentrating hormone MCH1 membranes, FlashPlate, [125I]-S36057; conditions: compound at 10 μM
T6 construct: purchased Perkin Elmer Biosignal
Procedure, shortened: as §1

Human μ-opioid (MOP) = molecular target: T7, Human μ-opioid (MOP) (Homo sapiens, UniProt P35372); assay: Radioligand binding, human μ-opioid (MOP) membranes, FlashPlate, [3H]-Naloxone; conditions: compound at 10 μM, [3H]-Naloxone
T7 construct: purchased Perkin Elmer Biosignal
Procedure, shortened: as §1

Human neurokinin (NK1) = molecular target: T8, Human neurokinin (NK1) (Homo sapiens, UniProt P25103); assay: Radioligand binding, human neurokinin NK1 membranes, filtration, [125I]-Substance P; conditions: compound at 10 μM, [125I]-Substance P
T8 construct: purchased Perkin Elmer Biosignal
Procedure, shortened: as §2

[2] = molecular target: T9, Human neuropeptide Y (NPY-Y1) (Homo sapiens, UniProt P25929); assay: Radioligand binding, human neuropeptide Y NPY-Y1 membranes, FlashPlate, [125I]-PYY; conditions: compound at 10 μM, [125I]-PYY
T9 construct: purchased Perkin Elmer Biosignal
T9 sequence (P25929 1-384): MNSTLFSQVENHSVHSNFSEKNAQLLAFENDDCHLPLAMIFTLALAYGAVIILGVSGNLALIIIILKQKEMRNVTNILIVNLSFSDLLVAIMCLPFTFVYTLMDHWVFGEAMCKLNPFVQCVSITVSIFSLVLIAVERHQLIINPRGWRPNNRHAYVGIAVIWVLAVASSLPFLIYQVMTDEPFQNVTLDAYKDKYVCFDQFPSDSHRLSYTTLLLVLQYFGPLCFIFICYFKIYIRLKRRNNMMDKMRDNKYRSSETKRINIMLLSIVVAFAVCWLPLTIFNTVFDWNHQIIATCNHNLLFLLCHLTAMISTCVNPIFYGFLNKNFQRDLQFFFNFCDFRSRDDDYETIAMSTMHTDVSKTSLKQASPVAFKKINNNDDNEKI
Procedure, shortened: as §1

Human opioid (ORL1) = molecular target: T10, Human opioid (ORL1) (Homo sapiens, UniProt P41146); assay: Radioligand binding, human opioid ORL1 membranes, FlashPlate, [125I]-Nociceptin; conditions: compound at 10 μM, [125I]-Nociceptin
T10 construct: purchased Perkin Elmer Biosignal
Procedure, shortened: as §1

Mouse urotensin (mUR2) = molecular target: T11, Mouse urotensin (mUR2) (Mus musculus, UniProt Q8VIH9); assay: Radioligand binding, mouse urotensin mUR2 membranes, FlashPlate, [125I]-Urotensin II; conditions: compound at 10 μM, [125I]-Urotensin II
T11 construct: purchased Perkin Elmer Biosignal
T11 sequence (Q8VIH9 1-385): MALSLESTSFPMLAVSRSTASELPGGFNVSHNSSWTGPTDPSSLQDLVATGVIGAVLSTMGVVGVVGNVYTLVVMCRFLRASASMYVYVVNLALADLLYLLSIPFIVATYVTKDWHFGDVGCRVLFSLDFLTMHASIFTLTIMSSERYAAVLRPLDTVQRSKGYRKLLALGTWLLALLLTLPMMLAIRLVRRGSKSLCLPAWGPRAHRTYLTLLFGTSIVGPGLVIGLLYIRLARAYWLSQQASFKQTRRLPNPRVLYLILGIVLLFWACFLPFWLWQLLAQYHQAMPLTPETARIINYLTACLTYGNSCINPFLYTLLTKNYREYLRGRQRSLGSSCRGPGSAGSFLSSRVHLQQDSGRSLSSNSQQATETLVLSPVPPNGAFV
Procedure, shortened: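 Cloned mouse urotensin (mUR2) receptor membranes from Perkin Elmer Biosignal were immobilized in FlashPlate microplates using a proprietary coating. Each well got 19.5 μl buffer, then 0.5 μl of DMSO, reference ligand, or compound. Adding 5 μl of [125I]-Urotensin II, diluted to 5× final concentration in binding buffer, started binding. Plates were sealed with TopSeal-A and incubated 1 hour at room temperature in the dark. Wells were counted for 30 seconds each on a TopCount after a 60-second delay, and percentage inhibition was calculated.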

T6 sequence (Q99705 whole entry): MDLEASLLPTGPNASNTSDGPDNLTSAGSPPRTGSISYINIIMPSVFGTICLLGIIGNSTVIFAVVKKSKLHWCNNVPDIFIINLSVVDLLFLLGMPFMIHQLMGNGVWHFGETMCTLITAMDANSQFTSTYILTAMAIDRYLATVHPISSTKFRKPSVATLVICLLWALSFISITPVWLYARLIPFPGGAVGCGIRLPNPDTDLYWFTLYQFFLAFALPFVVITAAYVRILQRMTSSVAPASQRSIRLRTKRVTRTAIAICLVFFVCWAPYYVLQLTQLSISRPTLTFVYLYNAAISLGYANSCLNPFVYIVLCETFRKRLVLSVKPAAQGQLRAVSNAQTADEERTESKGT
T2 sequence (P41145 whole entry): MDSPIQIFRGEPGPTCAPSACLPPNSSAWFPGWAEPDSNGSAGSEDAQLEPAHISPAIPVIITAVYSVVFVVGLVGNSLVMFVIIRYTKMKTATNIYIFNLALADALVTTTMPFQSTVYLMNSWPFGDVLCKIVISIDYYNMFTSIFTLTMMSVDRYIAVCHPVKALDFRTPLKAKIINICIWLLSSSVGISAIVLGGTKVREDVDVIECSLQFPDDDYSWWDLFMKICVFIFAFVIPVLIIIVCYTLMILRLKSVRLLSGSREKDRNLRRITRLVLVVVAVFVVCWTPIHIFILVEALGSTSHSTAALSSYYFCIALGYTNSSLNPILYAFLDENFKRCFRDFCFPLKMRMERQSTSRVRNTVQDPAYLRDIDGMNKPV
T5 sequence (P33032 whole entry): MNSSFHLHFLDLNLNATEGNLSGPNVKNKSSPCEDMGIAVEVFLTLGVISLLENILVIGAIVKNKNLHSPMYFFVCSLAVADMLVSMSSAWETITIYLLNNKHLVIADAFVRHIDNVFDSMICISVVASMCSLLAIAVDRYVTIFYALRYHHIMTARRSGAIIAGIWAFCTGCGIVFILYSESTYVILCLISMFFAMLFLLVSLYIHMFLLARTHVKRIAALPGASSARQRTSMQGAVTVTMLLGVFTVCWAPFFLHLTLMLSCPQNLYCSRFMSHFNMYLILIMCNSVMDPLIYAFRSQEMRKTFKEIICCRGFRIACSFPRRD
T1 sequence (P41143 whole entry): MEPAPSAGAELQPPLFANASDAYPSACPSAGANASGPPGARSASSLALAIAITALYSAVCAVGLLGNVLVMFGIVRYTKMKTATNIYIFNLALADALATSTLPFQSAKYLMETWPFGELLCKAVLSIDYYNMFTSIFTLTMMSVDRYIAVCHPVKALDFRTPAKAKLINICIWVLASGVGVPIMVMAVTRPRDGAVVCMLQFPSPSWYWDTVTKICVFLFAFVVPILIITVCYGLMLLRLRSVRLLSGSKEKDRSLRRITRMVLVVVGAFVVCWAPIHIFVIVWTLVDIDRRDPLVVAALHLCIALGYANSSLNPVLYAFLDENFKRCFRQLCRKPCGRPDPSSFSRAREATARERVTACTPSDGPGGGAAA
T3 sequence (P41968 whole entry): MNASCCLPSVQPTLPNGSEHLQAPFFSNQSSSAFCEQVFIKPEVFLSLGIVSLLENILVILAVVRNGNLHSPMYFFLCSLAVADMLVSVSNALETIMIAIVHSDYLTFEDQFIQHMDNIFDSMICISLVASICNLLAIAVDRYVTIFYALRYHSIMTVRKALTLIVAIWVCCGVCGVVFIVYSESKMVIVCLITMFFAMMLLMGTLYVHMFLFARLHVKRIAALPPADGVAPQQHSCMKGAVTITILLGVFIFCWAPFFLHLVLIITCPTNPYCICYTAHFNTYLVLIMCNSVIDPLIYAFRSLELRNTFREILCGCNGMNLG
T10 sequence (P41146 whole entry): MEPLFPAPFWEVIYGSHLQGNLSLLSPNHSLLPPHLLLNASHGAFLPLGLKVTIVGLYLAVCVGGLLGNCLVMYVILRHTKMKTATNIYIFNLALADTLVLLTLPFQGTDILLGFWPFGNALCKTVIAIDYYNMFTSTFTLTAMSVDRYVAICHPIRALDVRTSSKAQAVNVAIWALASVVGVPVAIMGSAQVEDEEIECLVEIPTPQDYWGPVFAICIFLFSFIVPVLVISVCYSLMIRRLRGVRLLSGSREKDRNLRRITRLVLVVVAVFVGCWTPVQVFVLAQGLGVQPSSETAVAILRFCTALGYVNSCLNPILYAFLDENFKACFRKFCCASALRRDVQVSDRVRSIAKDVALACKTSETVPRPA
T4 sequence (P32245 whole entry): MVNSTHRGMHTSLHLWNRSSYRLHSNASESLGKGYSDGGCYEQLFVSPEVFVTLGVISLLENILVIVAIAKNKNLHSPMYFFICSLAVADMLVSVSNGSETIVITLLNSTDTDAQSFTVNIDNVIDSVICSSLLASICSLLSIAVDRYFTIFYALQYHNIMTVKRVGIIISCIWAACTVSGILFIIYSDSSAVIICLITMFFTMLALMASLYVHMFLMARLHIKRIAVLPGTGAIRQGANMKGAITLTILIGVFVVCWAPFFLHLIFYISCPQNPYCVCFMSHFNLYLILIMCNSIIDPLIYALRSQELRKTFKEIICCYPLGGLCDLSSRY
T8 sequence (P25103 whole entry): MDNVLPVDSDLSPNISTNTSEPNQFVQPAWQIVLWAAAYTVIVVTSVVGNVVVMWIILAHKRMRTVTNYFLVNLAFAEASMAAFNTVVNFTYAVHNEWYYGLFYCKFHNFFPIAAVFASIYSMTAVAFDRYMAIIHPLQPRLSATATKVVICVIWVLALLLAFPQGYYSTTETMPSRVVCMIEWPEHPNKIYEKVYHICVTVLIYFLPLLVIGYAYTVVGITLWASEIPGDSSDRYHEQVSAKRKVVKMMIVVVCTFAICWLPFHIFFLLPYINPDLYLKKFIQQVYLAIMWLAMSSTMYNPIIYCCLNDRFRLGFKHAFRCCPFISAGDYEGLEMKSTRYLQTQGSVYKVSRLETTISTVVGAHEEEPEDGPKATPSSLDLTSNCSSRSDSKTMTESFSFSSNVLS
T7 sequence (P35372 whole entry): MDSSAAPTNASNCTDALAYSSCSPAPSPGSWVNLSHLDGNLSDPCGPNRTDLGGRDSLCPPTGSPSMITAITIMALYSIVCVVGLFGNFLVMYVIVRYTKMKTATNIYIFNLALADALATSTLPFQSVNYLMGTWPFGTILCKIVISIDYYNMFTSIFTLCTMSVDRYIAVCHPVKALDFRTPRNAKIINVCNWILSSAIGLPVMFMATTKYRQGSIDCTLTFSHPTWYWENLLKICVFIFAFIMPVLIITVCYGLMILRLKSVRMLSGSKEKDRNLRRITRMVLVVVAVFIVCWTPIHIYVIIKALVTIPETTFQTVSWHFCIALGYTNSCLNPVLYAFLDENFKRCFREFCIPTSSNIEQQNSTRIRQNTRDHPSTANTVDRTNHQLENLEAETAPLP

NCCC(=O)NC1C(OCc2ccc(Cl)cc2)OC(COCc2ccccc2)C(O)C1OCc1ccccc1 (single isomer, unassigned) [compound 486]
A1: inhibition of radioligand binding, human δ-opioid (DOP) (Human δ-opioid (DOP)): − (“−” indicates less than 50% inhibition at 10 μM) | A2: inhibition of radioligand binding, human κ-opioid (KOP) (Human κ-Opioid (KOP)): − (“−” indicates less than 50% inhibition at 10 μM) | A3: inhibition of radioligand binding, human melanocortin (MC3) (Human Melanocortin (MC3)): − (“−” indicates less than 50% inhibition at 10 μM) | A4: inhibition of radioligand binding, human melanocortin (MC4) (Human Melanocortin (MC4)): − (“−” indicates less than 50% inhibition at 10 μM) | A5: inhibition of radioligand binding, human melanocortin (MC5) (Human melanocortin (MC5)): − (“−” indicates less than 50% inhibition at 10 μM) | A6: inhibition of radioligand binding, human melanin-concentrating hormone (MCH1) ([1]; [125I]-S36057): − (“−” indicates less than 50% inhibition at 10 μM) | A7: inhibition of radioligand binding, human μ-opioid (MOP) (Human μ-opioid (MOP)): − (“−” indicates less than 50% inhibition at 10 μM) | A8: inhibition of radioligand binding, human neurokinin (NK1) (Human neurokinin (NK1)): + (“+” indicates greater than 50% inhibition at 10 μM) | A9: inhibition of radioligand binding, human neuropeptide Y (NPY-Y1) [2]: − (“−” indicates less than 50% inhibition at 10 μM) | A10: inhibition of radioligand binding, human opioid (ORL1) (Human opioid (ORL1)): − (“−” indicates less than 50% inhibition at 10 μM) | A11: inhibition of radioligand binding, mouse urotensin (mUR2) (Mouse urotensin (mUR2)): − (“−” indicates less than 50% inhibition at 10 μM)

CSC1OC(COCc2ccc3ccccc3c2)C(O)C(OCc2ccccc2)C1NC(=O)CCCNC(=N)N (stereo not shown) [compound 264]
A1: inhibition of radioligand binding (Human δ-opioid (DOP); FlashPlate): − (“−” indicates less than 50% inhibition at 10 μM) | A2: inhibition of radioligand binding (Human κ-Opioid (KOP); filtration): − (“−” indicates less than 50% inhibition at 10 μM) | A3: inhibition of radioligand binding (Human Melanocortin (MC3); FlashPlate): − (“−” indicates less than 50% inhibition at 10 μM) | A4: inhibition of radioligand binding (Human Melanocortin (MC4); FlashPlate): − (“−” indicates less than 50% inhibition at 10 μM) | A5: inhibition of radioligand binding (Human melanocortin (MC5); FlashPlate): − (“−” indicates less than 50% inhibition at 10 μM) | A6: inhibition of radioligand binding ([1]; [125I]-S36057, FlashPlate): − (“−” indicates less than 50% inhibition at 10 μM) | A7: inhibition of radioligand binding (Human μ-opioid (MOP); FlashPlate): − (“−” indicates less than 50% inhibition at 10 μM) | A8: inhibition of radioligand binding (Human neurokinin (NK1); filtration): + (“+” indicates greater than 50% inhibition at 10 μM) | A9: inhibition of radioligand binding ([2]; FlashPlate): − (“−” indicates less than 50% inhibition at 10 μM) | A10: inhibition of radioligand binding (Human opioid (ORL1); FlashPlate): − (“−” indicates less than 50% inhibition at 10 μM) | A11: inhibition of radioligand binding (Mouse urotensin (mUR2); FlashPlate): − (“−” indicates less than 50% inhibition at 10 μM)

Source: patent US20080009418A1, “Selective Inhibitors” (Alchemia LTD., priority 2004, published 2008)
